Values of other authors, collected in patent publication US20220215898A1, “METHODS AND […] FOR GENERATING A VIRTUAL MODEL OF XENOBIOTIC EXPOSURE USING TRANS[…] OF LIQUID BIOPSY SAMPLES” (Certara USA, Inc., priority 2019, published 2022).

Details: compound files selected from the Simcyp library

## Cc1ncc2n1-c1ccc(Cl)cc1C(c1ccccc1F)=NC2 [midazolam]
  clearance category of CYP3A substrate: medium clearance

## Cc1nnc2n1-c1ccc(Cl)cc1C(c1ccccc1)=NC2 [alprazolam]
  clearance category of CYP3A substrate: low clearance
